Values quoted from earlier work, collected in patent publication US20230065900A1, “COMPOSITIONS AND METHODS FOR MODULATING INFLAMMATION AND WOUND HEALING” (Alastin Skincare, Inc., priority 2020, published 2023).

Test system: hyaluronic acid level
Settings: ex vivo human skin model

## CCCCCCCC(=O)CCc1ccc(O)c(OC)c1 [hydroxymethoxyphenyl decanone]
  stimulation of dermal hyaluronic acid level versus placebo: 259%
  stimulation of epidermal hyaluronic acid level versus placebo: 198%
